According to patent US11977068B2, “Method for testing ecotoxicity of disinfection by-products” (priority 2020, dated 2024):

How the values were obtained:
brine shrimp [1] = assay: Chronic toxicity test on second-instar brine shrimp (survival/mortality)
Protocol: (§1) S1, anhydrous freeze-dried eggs of a brine shrimp are hatched in artificial seawater to obtain a first-instar brine shrimp, where, a hatching temperature is (26±1)° C., the hatching is performed under a continuous aeration for a hatching time of (10-24) h, and an aeration gas source is air. After the hatching is finished, the first-instar brine shrimp and non-hatched brine shrimp eggs are separated immediately, and the first-instar brine shrimp is placed in the artificial seawater. The brine shrimp at different life stages may have different tolerance to toxicity, and therefore, a separation of the brine shrimp at different instars can avoid the instability of experimental results. S2, the first-instar brine shrimp is cultured in a light incubator for 24 h to obtain a second-instar brine shrimp, where, a culture temperature is (26±1)° C., a light time and a dark time are respectively continuous 12 h, and a light intensity in the light incubator is (1,000-3,000) Lux. S3. First, the second-instar brine shrimp is pre-placed in a water sample to be tested containing toxic substances and exposed for a predetermined time to enable the artificial seawater carried by the second-instar brine shrimp to mix uniformly with the water sample to be tested, and then the second-instar brine shrimp is put into a culture plate containing the water sample to be tested for an acute toxicity test with a time end-point of (42-54) h and a chronic toxicity test with a time end-point of (12-16) days. After the time end-point of the toxicity test is reached, the culture plate is slightly vibrated to observe the survival of the brine shrimp in each well. […] A mortality rate of the brine shrimp is obtained to calculate the toxicity of the water sample to the brine shrimp.
The remaining solution in each brown bottle is poured into a clean 150 mm crystallization dish. […] The culture plate is cultured in light. […] The time difference of transferring brine shrimps within and between groups should be shortened as far as possible to avoid the influence of excessive time difference on brine shrimp growth.

[2] = Acute toxicity test on second-instar brine shrimp (survival/mortality); conditions: brine shrimp (Artemia), in vivo, other: immersion in the water sample in culture wells
Protocol: as §1
(§2) Hatching of a brine shrimp: 3-5 g of anhydrous freeze-dried eggs of the brine shrimp is put into a 1,500 mL beaker containing 1,200 mL of seawater. The opening of the beaker is sealed with aluminum foil and the beaker is placed in a constant temperature water bath at (26±1)° C. A small air pump is used to blow air for aeration and hatching for 12 h. After the hatching is finished, the first-instar brine shrimp is randomly picked out with a Pasteur pipette immediately and placed in a 150 mm crystallization dish containing sufficient seawater.
(§3) Culture of the brine shrimp: the first-instar brine shrimp is cultured in a light incubator for 24 h. The conditions in the light incubator are as follows: a temperature is (25±1)° C., a light intensity is 1,000 Lux, and a light time and a dark time are respectively continuous 12 h.
(§4) Acute toxicity test: 150 mL of each water sample to be tested is put into a brown bottle, four groups of the water samples with different concentrations of IAM are added into a 12-well culture plate with a pipette, with 2.5 mL of liquid in each well, and each 3 wells is an experimental group with the same concentration of the water samples. The remaining solution in each brown bottle is poured into a clean 150 mm crystallization dish. At least 30 second-instar brine shrimps are transferred into 100-150 mL of the water sample to be tested at one time by the Pasteur pipette in the crystallizing dish, respectively. The second-instar brine shrimps that have been exposed to the solution are transferred by the Pasteur pipette to the culture wells with 10 second-instar brine shrimps in each well. The culture plate is cultured in light. The survival of the brine shrimps in each well is observed after 48 h. The time difference of transferring brine shrimps within and between groups should be shortened as far as possible to avoid the influence of excessive time difference on brine shrimp growth.

brine shrimp [3] = assay: as above; conditions: for minimum effective concentration (defined as the concentration causing 20% death): second-instar brine shrimp
Protocol: as §1, §2, §3, §4

SMILES: NC(=O)CI [IAM, iodoacetamide]
- mortality rate (brine shrimp [1]; 544.5 μM (acute minimum effective concentration), 14 days exposure): 100%
- survival rate of brine shrimp (brine shrimp [1]; 544.5 μM, 14 days exposure): 0
- LC50 at 48 h [2]: 557 µM
- impact on the survival of brine shrimp in a short period (brine shrimp [3]; 544.5 μM, 48 h): does not cause significant impact on the survival
- minimum effective concentration (defined as the concentration causing 20% death) (brine shrimp [3]; 48 h exposure, fitted from FIG. 2 data): 544.5 µM

SMILES: O=C(O)CI [IAA, iodoacetic acid]
- mortality rate (brine shrimp [1]; 59.588 μM (acute minimum effective concentration), 16 days exposure): 100%
- survival rate of brine shrimp (brine shrimp [1]; 59.588 μM, 16 days exposure): 0
- LC50 at 54 h [2]: 1050 µM
- impact on the survival of brine shrimp in a short period (brine shrimp [3]; 59.588 μM, 54 h): does not cause significant impact on the survival
- minimum effective concentration (defined as the concentration causing 20% death) (brine shrimp [3]; 54 h exposure, fitted from FIG. 3 data): 59.588 µM
